Non-standard residues stand in square brackets, D forms with d. Residues, ends and D or L forms follow the SMILES beside them. *: point of attachment. Nle = CCCC[C@H](N)C(=O)O; Cbz = O=C(OCc1ccccc1)*
Key:
Assay type in all cases: cell-based
[1] = tested on: MCF-10A cells; test: SRB proliferation of GSI1 on normal cell line MCF-10A
Procedure: Graphs illustrating the effects of GSI1, at different concentrations, on proliferation in four normal cell lines: (A) MCF-10A cells, (B) MCF-10A, (C) L226U19 cells and (D) L226TS4 cells.
The effect of GSI1 on proliferation in normal cell lines was investigated as, illustrated in FIG. 8. […] Therefore we repeated in all 3 normal lines (MCF-10A, L226U19 and L226TS4) at much higher concentrations (10 μM, 20 μM, 40 μM, 60 μM and 80 μM). 10 μM GSI1 was required to kill the MCF-10A cells and over 40 μM GSI1 was required to kill the two L226 cell lines. MCF-10A cells were cultured in DMEM (Invitrogen 11995-040), […] Insulin (Sigma, 11882), 20 ng/ml hEGF (Trevigen, 3443-050-01), 100 ng/ml Cholera Toxin (Sigma, C8052), 500 ng/ml Hydrocortisone (Sigma, H0888), 5% Horse Serum +100U/m1 penicillin, 0.1 mg/ml streptomycin, 2 mM L-glutamine at 37° C. in 5% CO2. L226U19 and TS4 cells were cultured in DME: F12 plus 10% FCS, 5 μg/ml insulin, 1 μg/ml Hydrocortisone, 10 ng/ml hEGF, 10 ng/ml Cholera toxin 100 U/ml penicillin, 0.1 mg/ml streptomycin, 2 mM L-glutamine at 37° C. in 5% CO2.

[2] = tested on: CD44 in ZR75-1 and MCF10A cells; test: CD44 immunofluorescence staining after GSI1; conditions: GSI1 750 nM
Text: Stained sections of the breast cancer cell line ZR75-1 (A-D) and the normal cell line (E-H) showing effect of GSI1 on CD44 concentration. Upper sections (A, B, E and F) show cells treated with GSI1. Lower sections (C, D, G and H) show untreated cells. Sections were stained with an anti CD44 primary antibody and a fluorescently labeled secondary antibody to detect CD44. Nuclei were counterstained with DAPI, as shown in panels A, C, E and G.
In order to understand the mechanism of how GS inhibition by GSI1 leads to cell death, we investigated the effect of GS inhibition on CD44 expression which is a substrate for GS and is a cell adhesion molecule. […] The effect of GSI1 on CD44 expression was investigated in one cancer, ZR75-1, and one normal, MCF10A, cell line±GSI1 (at 750 nM i.e. inhibitory dose) (FIG. 9). We used an anti CD44 primary antibody and a fluorescently labelled secondary antibody to detect the CD44. Specifically, the CD44 antibody was a FITC conjugated antibody (BD Biosciences) that was used at a 1:40 dilution. The antibody was incubated for 60 mins at room temperature after fixing in formalin. Nuclei were counterstained with DAPI. […] Thus the inhibitor was not causing the cells to become detached from the plates and die.

[3] = tested on: MCF-7 cells; test: Annexin V staining after GSI1
Procedure: (§1) We next did Annexin V staining which is a marker of apoptosis. Cells were treated with GSI1 for 0, 7, 24 and 48 hours. After trypsinizing, the cells were washed with PBS 5 times and then treated with RNAase (100 μg/ml) for 20 mins then propidium iodide was added at 50 μg/ml per 1×10^7 cells, and incubated overnight at 4° C. The samples were then filtered through a 70 μm mesh and run on a FACS with the following settings: Forward scatter 113, side scatter 356 and PE setting 380. Although there was an increase in staining indicating apoptosis, this was only approximately 10%. For example, in MDA-MB-231 cells there was a 5% increase in Annexin V staining after 7 hours of treatment and in T47D and MCF-7 cells there was an 8% increase in Annexin V staining. We have repeated these experiments with full cell cycle analysis at 7, 24 and 48 h post treatment and again detect apoptosis but […]. […] Nevertheless it is likely that cell proliferation is inhibited via another mechanism as opposed to the induction of cellular death.

[4] = tested on: MDA-MB-231 cells; test: Annexin V staining after GSI1; conditions: after 7 hours of treatment
Procedure: as §1

[5] = tested on: T47D cells; test: Annexin V staining after GSI1
Procedure: as §1

[6] = tested on: Gamma Secretase Activity in breast cancer cell lines; test: Gamma-Secretase Activity Assay (R&D Systems kit) upon GSI1 treatment; conditions: 750 nM, 2 uM, 5 uM; 24 and 48 hours
Procedure: 1.5×10^6 cells were plated out and allowed to adhere overnight. The next day, cells were treated with increasing concentrations of GSI1 (750 nM, 2 uM, 5 uM) for 24 and 48 hours. We used the R&D Systems Gamma Secretase Activity Kit (as previously reported- ref from R&D Spec sheet) to determine Gamma Secretase Activity in breast cancer cell lines. Cells were washed twice with ice-cold PBS and all following steps, according to manufacturer's protocol were performed at 4 degrees. Briefly, cells were harvested in the Cell Extraction buffer, and incubated on ice for at least 10 minutes, to allow for maximal Buffer activity. Lysates were centrifuged at 10,000×g for 1 minute. Supernatants were collected with a total protein yield between 0.5-1 mg/ml. Pierce BCA Protein Assay was used to determine protein concentration in each sample. 200 microg of was used and incubated with the gamma-secretase fluorogenic substrate for 2 hours at 37° C. Fluorescence was measured at 355/460 nm.

[7] = tested on: Hes1 transcriptional activity (Notch target gene); test: CSL (Hes-1) Luciferase reporter assay upon GSI1 treatment; conditions: 750 nM, 2 microM, 5 microM; 24 h
Procedure: For the Luciferase based reporter assay, 5×10^4 cells were plated in 48 well plates and allowed to adhere over night. The following day, cells were transfected with 200 ng of the 23A plasmid (Hes-1 reporter). 24 h after transfection, transfection media was evacuated and replaced with treatment media (750 nM, 2 microM, 5 microM of the GSI1 and a vehicle treated control). Cells were incubated for 24 h at 37 C. At the 24 h time point the Dual Glow (Promega) Luciferase Kit was implemented according to manufacturer's protocol).

In the case of CCCC[C@@H](C=O)NC(=O)[C@H](CC(C)C)NC(=O)[C@H](CC(C)C)NC(=O)OCc1ccccc1 [GSI1, Z-Leu-Leu-Nle-CHO] (Cbz-Leu-Leu-[Nle]-aldehyde), the effect on proliferation ([1]; GSI1 100 nM to 10 μM) is reported as “no effect on proliferation”, the “concentration required to kill the cells” value ([1]; repeat at 10-80 μM) is reported as 10 µM and the CD44 expression [2] is reported as “up-regulation of CD44”. For the same compound, the “increase in Annexin V staining” value [3] was 8%, the “increase in Annexin V staining” value [4] was 5% and the “increase in Annexin V staining” value [5] was 8%. For the same compound, the “reduction in gamma-secretase activity” value [6] was “dose dependant and already significant at the dose of 750 nM” and the “Hes1 reporter (Luciferase) activity” value [7] was “dose dependant decrease of the reporter activity”.

Reference: patent US20100266503A1, “Breast Cancer Methods, Medicaments and Agents” (priority 2007, published 2010)
